Data taken from patent US9403829B2, “Pharmaceutical compositions of 7-(6-(2-hydroxypropan-2-yl)pyridin-3-yl)-1-((trans)-4-methoxycyclohexyl)-3,4-dihydropyrazino [2,3-b]pyrazin-2(1H)-one, a solid form thereof and methods of their use” (Signal Pharmaceuticals, LLC, priority 2011, dated 2016).
Where two headings read alike, the source gives them in different places.

Assay: Pharmacokinetics of the metabolite produced in vivo after administration of 7.5-60 mg Compound A
Conditions: human; for AUC(0-t): read-out: AUC0-24; for concentration at 15 day: read-out: Ctrough
Protocol: In certain embodiments, the pharmacokinetic parameters in connection with the metabolite of Compound A produced via administration of 7.5 mg, 15 mg, 30 mg, 45 mg and 60 mg of Compound A are obtained using the protocol set forth in Section 5.2.1 (paragraphs [00497]-[00520]) of U.S. provisional application No. 61/653,436, filed May 31, 2012, which is incorporated by reference herein in its entirety.
In certain embodiments, the pharmacokinetic parameters set forth herein are mean values obtained from multiple subjects.
In certain embodiments, the metabolite of Compound A is the O-desmethyl metabolite.

[1] = 7.5 mg, day 1 of administration of about 7.5 mg of Compound A
[2] = 7.5 mg, on day (number not given) of once a day administration of about 7.5 mg of Compound A
[3] = 15 mg, day 1 of administration of about 15 mg of Compound A
[4] = 15 mg, on day (number not given) of once a day administration of about 15 mg of Compound A
[5] = 30 mg, day 1 of administration of about 30 mg of Compound A
[6] = 30 mg, day 15 of once a day administration of about 30 mg of Compound A
[7] = 45 mg, day 1 of administration of about 45 mg of Compound A
[8] = 45 mg, day 15 of once a day administration of about 45 mg of Compound A
[9] = 60 mg, day 1 of administration of about 60 mg of Compound A
[10] = 60 mg, day 15 of once a day administration of about 60 mg of Compound A

CC(C)(O)c1ccc(-c2cnc3c(n2)N([C@H]2CC[C@H](O)CC2)C(=O)CN3)cn1 [O-Desmethyl metabolite, 1-((1r,4r)-4-hydroxycyclohexyl)-7-(6-(2-hydroxypropan-2-yl)pyridin-3-yl)-3,4-dihydropyrazino[2,3-b]pyrazin-2(1H)-one]
AUC(0-inf) [1]: 7.95 µg·h/mL
Cmax [1]: 0.143 µg/mL
Tmax [1]: 8 h
half-life [1]: 35 h
AUC(0-t) [1]: 2.74 µg·h/mL
AUC(0-inf) [2]: 45.6 µg·h/mL
Cmax [2]: 0.363 µg/mL
Tmax [2]: 2 h
AUC(0-t) [2]: 6.4 µg·h/mL
AUC(0-inf) [3]: 5.82 µg·h/mL
Cmax [3]: 0.309 µg/mL
Tmax [3]: 2 h
half-life [3]: 12 h
AUC(0-t) [3]: 3.83 µg·h/mL
AUC(0-inf) [4]: 9.75 µg·h/mL
Cmax [4]: 0.458 µg/mL
Tmax [4]: 3 h
AUC(0-t) [4]: 5.68 µg·h/mL
AUC(0-inf) [5]: 27.7 µg·h/mL
Cmax [5]: 0.776 µg/mL
Tmax [5]: 7 h
half-life [5]: 21 h
AUC(0-t) [5]: 13.3 µg·h/mL
AUC(0-inf) [6]: 118 µg·h/mL
Cmax [6]: 1.77 µg/mL
Tmax [6]: 2 h
AUC(0-t) [6]: 29.4 µg·h/mL
AUC(0-inf) [7]: 27.3 µg·h/mL
Cmax [7]: 1.15 µg/mL
Tmax [7]: 3 h
half-life [7]: 17 h
AUC(0-t) [7]: 15.9 µg·h/mL
AUC(0-inf) [8]: 77.7 µg·h/mL
Cmax [8]: 2.24 µg/mL
Tmax [8]: 2 h
AUC(0-t) [8]: 32.7 µg·h/mL
AUC(0-inf) [9]: 37.5 µg·h/mL
Cmax [9]: 1.44 µg/mL
Tmax [9]: 4 to 6 h
half-life [9]: 16 h
AUC(0-t) [9]: 21.5 µg·h/mL
AUC(0-inf) [10]: 138 µg·h/mL
Cmax [10]: 2.52 µg/mL
Tmax [10]: 3 h
AUC(0-t) [10]: 46.9 µg·h/mL
concentration at 15 day (day 15 of once a day administration of about 30 mg of Compound A): 1.1 µg/mL
concentration at 15 day (day 15 of once a day administration of about 45 mg of Compound A): 1.18 µg/mL
concentration at 15 day (day 15 of once a day administration of about 60 mg of Compound A): 1.47 µg/mL
